How the values were obtained:
[1] = tested on: CHO cells over-expressing human Swedish mutant APP (CHO/APPswe); assay: Aβ and sAPPα production in cultured media of CHO/APPswe cells by ELISA; assay type: cell-based, Chinese hamster; conditions: 20 μg/mL, 24 hours
Protocol: Cell Culture—Chinese hamster ovary (CHO) cells engineered to express wild-type human APP (CHO/APPwt cells) or Swedish mutant human APP (CHO/APPswe cells) were kindly provided by Dr. Stefanie Hahn and Dr. Sascha Weggen (University of Heinrich Heine, Dusseldorf, Germany). As described previously (Obregon et al., 2012), these cells were cultured in Dulbecco's modified Eagle's medium (DMEM) with 10% fetal bovine serum (FBS), 1 mM sodium pyruvate, and 100 units/mL of penicillin and streptomycin.
To confirm the binding of APPsweBBP with BACE1, CHO/APPwt cells were plated in 8-well chambers (5×10^5/well), incubated with TAT-APPsweBBP-biotin or APPsweBBP-biotin at 20 μM for 30 minutes, fixed with 4% paraformaldehyde for 20 minutes, washed and permeabilized with 0.5% Triton X-100. Following application of blocking buffer, these cells were stained with mouse anti-BACE1 and rabbit anti-biotin antibodies overnight at 4° C. for immunocytochemistry analysis. In order to determine the inhibitory effects of TAT-APPsweBBP on BACE1-mediated APP β-cleavage and subsequent Aβ production, both CHO/APPwt and CHO/APPswe cells were plated in 24 well-plates (3×10^5/well) and treated with TAT-APPsweBBP at 0-20 μM for 24 hours. The cultured media were collected for Aβ analysis by enzyme-linked immunosorbent assay (ELISA) and sAPPα analysis by ELISA and Western blot (WB). Cell lysates were also prepared for analysis of APP amyloidogenic processing by WB.
ELISA—Mouse brains were homogenized in ice-cold lysis buffer for 30 seconds using a Minilys tissue homogenizer (Bertin Technologies, Montigny-le-Bretonneux, France) set at high speed, allowed to stand for 15 minutes at 4° C., and centrifuged at 15,000 rpm for 30 minutes. Soluble Aβ1-40/42 species and sAPPα were directly detected in cultured cell media or brain homogenates using the Aβ1-40/42 (Invitrogen) and sAPPα ELISA kits (IBL-America, Minneapolis, Minn., USA).
To further examine the ability of the Swedish mutant APP BACE1 binding peptide/Tat fusion peptides to decrease Aβ production, CHO cells overexpressing either human wild-type APP (CHO/APPwt cells) or Swedish mutant APP (hereinafter referred to as “CHO/APPswe cells”) are treated with a variety of APP-based BACE1 inhibitor peptides, as shown in Table 1 and Table 2. Aβ production is determined using ELISA.

[2] = target: BACE1 (Homo sapiens, UniProt P56817); assay: BACE1 activity assay (FRET, cell-free); assay type: biochemical; parameters: purchased Pan Vera Co., Madison, Wis., USA; conditions: peptide final concentration 20 μM, 90 minutes, room temperature
Sequence of BACE1 (P56817 46-501): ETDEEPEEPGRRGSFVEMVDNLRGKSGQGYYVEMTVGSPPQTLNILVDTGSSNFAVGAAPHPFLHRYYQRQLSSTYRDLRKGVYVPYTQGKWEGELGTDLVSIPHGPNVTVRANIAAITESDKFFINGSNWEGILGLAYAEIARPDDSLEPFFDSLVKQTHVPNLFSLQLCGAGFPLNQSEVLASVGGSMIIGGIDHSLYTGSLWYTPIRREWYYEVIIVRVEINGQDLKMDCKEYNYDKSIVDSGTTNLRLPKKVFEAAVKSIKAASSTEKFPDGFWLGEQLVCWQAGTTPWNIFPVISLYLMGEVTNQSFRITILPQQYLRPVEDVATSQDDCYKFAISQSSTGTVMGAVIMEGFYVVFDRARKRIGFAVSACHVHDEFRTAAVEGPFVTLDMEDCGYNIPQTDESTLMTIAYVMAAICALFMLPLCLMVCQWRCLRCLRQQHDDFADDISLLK
Protocol: BACE1 Activity Assay—The BACE1 inhibiting activity of APP-based BACE1 site binding peptides were determined using a fluorescence resonance energy transfer (FRET) assay (Pan Vera Co., Madison, Wis., USA), which employs a recombinant baculovirus-expressed BACE1 and a specific substrate (Rh-[…]-quencher) that is based on the APPswe mutation. This specific peptide substrate becomes highly fluorescent upon enzymatic cleavage. A mixture of 10 μL of BACE1 (1.0 U/mL in 50 mM Tris, pH7.5, 10% glycerol), 10 μL of FRET-substrate, and 10 μL of the various APP-based BACE1 site binding peptides (final concentration 20 μM) were incubated for 90 minutes in the dark at room temperature. Then, 10 μL of BACE1 stop buffer (2.5 M sodium acetate) was added to the mixture. Fluorescence was read using a fluorometer, with excitation at 545 nm and emission at 585 nm.
As a required enzyme for the generation of neurotoxic Aβ from APP, BACE1 is well established as an important mediator of AD β-amyloid pathology. As such, it has become an important target for new disease modifying therapeutics. However, since BACE1 also has important physiological roles, abolishment of the enzyme or its activity may lead to deleterious side effects as evidenced by numerous failed clinical trials discussed previously. […] Since previous studies have established a close relationship between α-helix structure and peptide-protein (or protein-protein) interactions (Azzarito, 2013; Rao et al., 2013), several APP based peptides were synthesized that might serve as a preferable substrate for BACE1. Importantly, these peptides were free of the Aβ-containing segment and, thus, cannot be amyloidogenic. In theory, these could be used to “hijack” the BACE1 processing of endogenous APP and lead to a decrease in cerebral Aβ. These BACE1 substrates and controls were incubated with recombinant BACE1 and percent of inhibition of the enzyme was calculated. […] These findings indicate that the α-helical TAT fusion domain may help to promote selective APPsweBBP proteolysis by BACE1, yielding substrate competition against human wild-type APP.

## YGRKKRRQRRR [TAT, reference compound]
[1]
  Secreted Aβ40 (ng/mg; mean ± SD): 66.71 ± 12.02 ng/mg
  Secreted Aβ42 (ng/mg; mean ± SD): 10.76 ± 2.12 ng/mg
  Secreted sAPPα (ng/mg; mean ± SD): 196.98 ± 17.77 ng/mg
[2]
  % of inhibition (mean ± SD) of BACE1: 3.32 ± 0.02%
